The values that follow come from patent US12042503B2, “Compositions and methods for treating coronavirus infections” (priority 2020, dated 2024).

One series deals with T1, FP receptor (PTGFR) (Homo sapiens, UniProt P43088).
T1 construct: host or cells: PathHunter beta-arrestin cell line
The experiment in a line: PathHunter beta-arrestin cell-based prostanoid receptor assay, FP. On the procedure: (§1) DiscoverX cell-based ligand binding assays were performed in the PathHunter beta-arrestin (EP1, EP2, EP3, EP4, FP, IP, and TP receptors) or cAMP Hunter™ (DP receptor) cell lines.
(§2) Receptor binding studies were performed in either the PathHunter® b-Arrestin (EP1, EP2, EP3, EP4, FP, IP, and TP receptors) or cAMP Hunter™ (DP receptor) cell lines. A 10 mM working stock of GP1681 was created in 1×PBS, pH 7.4. All assays were carried out in duplicate with 10 individual concentrations of GP1681. A three-fold dilution series of GP1681 was established for the initial or pilot experiment with a starting concentration of 4 uM (starting concentration was chosen based on previous Gemmus Pharma preclinical experimental results).
(§3) GP1681 was incubated with cells lines at either 37° C. or room temperature, for 90-180 minutes (temperatures and incubation times are all dependent on established optimized procedures for each receptor cell line) after which cell wells were processed and signal production detected. […] Receptor binding activity was analyzed using CBIS data analysis suite (ChemInnovation, CA). The percentage of activity was calculated using the following formula: % Activity=100%×(mean RLU of test sample−mean RLU of vehicle control)/(mean MAX control ligand−mean RLU of vehicle control). Dose curves were performed and EC50 values determined.

Another series deals with T2, EP3 receptor (PTGER3) (Homo sapiens, UniProt P43115).
T2 construct: host or cells: PathHunter beta-arrestin cell line
T2 sequence (P43115 1-390): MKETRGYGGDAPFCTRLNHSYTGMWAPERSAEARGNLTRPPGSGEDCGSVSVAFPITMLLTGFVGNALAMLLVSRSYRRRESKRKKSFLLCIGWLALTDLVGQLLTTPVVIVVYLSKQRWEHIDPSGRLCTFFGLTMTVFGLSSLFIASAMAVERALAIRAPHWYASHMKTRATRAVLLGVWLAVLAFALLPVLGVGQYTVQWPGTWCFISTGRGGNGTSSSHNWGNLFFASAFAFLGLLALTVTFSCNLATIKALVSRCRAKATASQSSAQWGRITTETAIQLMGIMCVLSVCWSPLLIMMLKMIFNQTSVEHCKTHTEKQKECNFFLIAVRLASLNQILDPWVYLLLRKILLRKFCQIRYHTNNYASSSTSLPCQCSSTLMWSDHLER
Description: PathHunter beta-arrestin cell-based prostanoid receptor assay, EP3. The note with it: β-Arrestin. Here is the method: as §1, §2
as §3, with “determined. […]” for “determined.”

Series [1] addresses T3, EP4 receptor (PTGER4) (Homo sapiens, UniProt P35408).
T3 construct: expressed in transfected cells; host or cells: PathHunter β-Arrestin PTGER4 (EP4) cell line
Description: PathHunter beta-arrestin cell-based prostanoid receptor assay, EP4. The note with it: β-Arrestin. On the procedure:
as §1, §2
as §3, with “determined. […]” for “determined.”

The target of series [2] is T3, EP4 receptor (PTGER4). The experiment in a line: PathHunter β-Arrestin PTGER4 (EP4) agonist assay, optimisation of cell density and temperature. It counts as cell-based. The note with it: for EC50: read-out: RC50 (μM) / EC50, agonist. Here is the method: This Example describes antagonist assay experiments performed with known EP4 receptor inhibitors. Agonist controls and antagonist binding studies were performed in the PathHunter® β-Arrestin PTGER4 (EP4) cell lines. The PathHunter® β-Arrestin assay monitors activation by bound ligands of a GPCR in a homogenous, non-imaging assay format using Enzyme Fragment Complementation (EFC) with β-galactosidase (β-Gal) as the functional reporter. A fresh 10 mM working stock of GP1681 was created in the vehicle (1×PBS, pH 7.4). Prior to setting up the GP1681-antagonist assays, the parameters of the GP1681 agonist assay were optimized for most efficient cellular activation and expression of the reporter molecule via GP1681 receptor (PTGER4) binding. Two different cell densities (5K vs 7.5K) and incubation temperatures (room temperature and 37 C) were evaluated in standard agonist format. […] Vehicle only controls (1×PBS, pH 7.4) were also included for each receptor cell line. Receptor binding activity was analyzed using CBIS data analysis suite (ChemInnovation Software, Inc., San Diego, CA, USA).
The percentage of activity was calculated using the following formula: % Activity=100%×(mean RLU of test sample−mean RLU of vehicle control)/(mean MAX control ligand−mean RLU of vehicle control). Dose curves were performed and EC50 values determined. In all rows, the assay was Arrestin, the assay target was PTGER4, and the result type was EC50 for all agonists, and IC50 for all antagonists. NI indicates no inhibition, N is number of replicates, K is cell density, and RT is room temperature.

The next series deals with T4, IP receptor (PTGIR) (Homo sapiens, UniProt P43119).
T4 construct: host or cells: PathHunter beta-arrestin cell line
T4 sequence (P43119 whole entry): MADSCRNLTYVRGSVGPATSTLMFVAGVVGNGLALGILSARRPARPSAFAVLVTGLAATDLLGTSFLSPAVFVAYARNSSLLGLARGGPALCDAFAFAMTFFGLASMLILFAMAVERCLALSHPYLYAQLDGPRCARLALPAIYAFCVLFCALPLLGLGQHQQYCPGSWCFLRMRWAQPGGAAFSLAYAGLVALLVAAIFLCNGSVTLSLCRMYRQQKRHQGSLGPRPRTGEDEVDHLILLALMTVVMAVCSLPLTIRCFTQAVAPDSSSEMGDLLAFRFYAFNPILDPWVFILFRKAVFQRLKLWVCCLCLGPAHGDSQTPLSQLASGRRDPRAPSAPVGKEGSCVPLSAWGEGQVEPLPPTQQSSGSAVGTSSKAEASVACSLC
The experiment in a line: PathHunter beta-arrestin cell-based prostanoid receptor assay, IP. The note with it: Run 1, GP1681 starting concentration 4 uM; β-Arrestin; read-out: EC50. On the procedure: as §1, §2
(§4) GP1681 was incubated with cells lines at either 37° C. or room temperature, for 90-180 minutes (temperatures and incubation times are all dependent on established optimized procedures for each receptor cell line) after which cell wells were processed and signal production detected. […] Vehicle only controls (PBS, pH 7.4) were also included for each receptor cell line. Receptor binding activity was analyzed using CBIS data analysis suite (ChemInnovation, CA). The percentage of activity was calculated using the following formula: % Activity=100%×(mean RLU of test sample−mean RLU of vehicle control)/(mean MAX control ligand−mean RLU of vehicle control). Dose curves were performed and EC50 values determined.

A short description of series [3]: Effect of food on oral absorption of GP1681.
The target in the next series is T5, TP receptor (TBAX2R) (Homo sapiens, UniProt P21731).
T5 construct: host or cells: PathHunter beta-arrestin cell line
T5 sequence (P21731 1-343): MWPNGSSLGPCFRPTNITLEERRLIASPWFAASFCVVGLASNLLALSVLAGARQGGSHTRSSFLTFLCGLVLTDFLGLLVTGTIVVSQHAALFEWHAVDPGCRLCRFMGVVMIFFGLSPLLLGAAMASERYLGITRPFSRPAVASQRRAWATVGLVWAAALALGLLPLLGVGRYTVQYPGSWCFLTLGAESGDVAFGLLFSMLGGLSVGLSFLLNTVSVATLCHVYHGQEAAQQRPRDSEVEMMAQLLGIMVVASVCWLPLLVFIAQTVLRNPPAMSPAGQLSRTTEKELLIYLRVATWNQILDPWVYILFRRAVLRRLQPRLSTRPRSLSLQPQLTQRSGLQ
The experiment in a line: PathHunter beta-arrestin cell-based prostanoid receptor assay, TP. Here is the method: as §1, §2, §4

The mark [4] stands for this setting: Run 1, GP1681 starting concentration 4 uM, β-Arrestin.
Setting [5] is: Run 1, GP1681 starting concentration 4 uM, curve for GP1681 not fully sigmoidal.
Where [6] appears, read: Run 2, GP1681 starting concentration 500 μM.

T3 sequence (P35408 whole entry): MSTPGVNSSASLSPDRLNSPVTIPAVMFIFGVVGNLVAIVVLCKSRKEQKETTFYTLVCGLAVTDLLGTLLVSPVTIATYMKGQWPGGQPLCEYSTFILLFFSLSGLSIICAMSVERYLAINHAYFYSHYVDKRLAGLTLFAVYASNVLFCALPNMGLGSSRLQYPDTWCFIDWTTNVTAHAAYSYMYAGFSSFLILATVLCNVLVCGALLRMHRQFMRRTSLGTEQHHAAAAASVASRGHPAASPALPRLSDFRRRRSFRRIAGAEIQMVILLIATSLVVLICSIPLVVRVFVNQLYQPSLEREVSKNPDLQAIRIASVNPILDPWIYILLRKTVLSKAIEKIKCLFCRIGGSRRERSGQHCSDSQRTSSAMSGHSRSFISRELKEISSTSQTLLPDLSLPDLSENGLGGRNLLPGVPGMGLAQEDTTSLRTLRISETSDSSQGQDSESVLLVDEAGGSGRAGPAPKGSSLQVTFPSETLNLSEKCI
T1 sequence (P43088 whole entry): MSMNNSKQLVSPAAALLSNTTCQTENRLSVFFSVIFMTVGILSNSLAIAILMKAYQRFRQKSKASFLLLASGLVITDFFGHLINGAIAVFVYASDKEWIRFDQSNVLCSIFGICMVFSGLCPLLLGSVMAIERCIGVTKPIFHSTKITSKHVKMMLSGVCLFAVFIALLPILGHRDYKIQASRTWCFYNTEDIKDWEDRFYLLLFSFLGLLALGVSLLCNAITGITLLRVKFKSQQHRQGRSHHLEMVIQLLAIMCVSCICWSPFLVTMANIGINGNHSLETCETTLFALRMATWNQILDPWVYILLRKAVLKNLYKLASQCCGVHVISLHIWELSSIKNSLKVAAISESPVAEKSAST

On to `CC#CCC(C)C(O)C=CC1C(O)CC2Oc3c(CCCC(=O)O)cccc3C21` (single isomer, unassigned) [GP1681, esuberaprost], for which the “binding to FP receptor, in words” value on FP receptor (PTGFR) is “does not bind”. Besides, the EC50 at FP receptor (PTGFR) (setting [4]) was over 4 µM; at EP3 receptor (PTGER3) (setting [5]), 1.83 µM; on EP3 receptor (PTGER3) (setting [6]), 5.39 µM; on EP4 receptor (PTGER4) [1] (setting [5]), 1.74 µM; at EP4 receptor (PTGER4) [1] (setting [6]), 18.1 µM; on EP4 receptor (PTGER4) [2] (5K 37C, N not given), 11.9 µM. Further, the EC50 stood at 23.4 µM on EP4 receptor (PTGER4) [2] (N = 1, 5K 37C); 12.7 µM on EP4 receptor (PTGER4) [2] (N = 1, 5K RT); 22 µM at EP4 receptor (PTGER4) [2] (N = 1, 7.5K 37C); 14.8 µM on EP4 receptor (PTGER4) [2] (N = 1, 7.5K RT); 16.2 µM at EP4 receptor (PTGER4) [2] (N = 2, 5K 37C); 16.1 µM at EP4 receptor (PTGER4) [2] (N = 2, 5K RT). Moreover, the EC50 on EP4 receptor (PTGER4) [2] (N = 2, 7.5K 37C) was 18 µM; at EP4 receptor (PTGER4) [2] (N = 2, 7.5K RT) it was 11.1 µM; at IP receptor (PTGIR), 0.11 µM; at TP receptor (TBAX2R) (setting [4]), over 4 µM. The molecule further showed an EC80 concentration on EP4 receptor (PTGER4) [2] (from GP1681 binding curves, used in the antagonist assays) of 45 µM. Also, in series [3], the “effect of food on oral absorption” value is recorded as “positive effect”. The “binding to TP receptor, in words” value on TP receptor (TBAX2R) is “does not bind”.
